Patent publication US10294202B2, “Pyrrolidinones as herbicides” (FMC Corporation, priority 2013, dated 2019)

Tests used:
[1] = test system: barnyardgrass; test: Test A pre-/postemergence herbicide test; type: in vivo, Echinochloa crus-galli; conditions: for Plant response rating, Barnyardgrass: 0 to 100 scale
Outline: (§1)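 Visual 0–100 ratings (100 = complete control) made about 10 days after treatment, greenhouse-held plants compared with untreated controls. Treatments: postemergence sprays on one- to two-leaf plants (2–10 cm tall) and preemergence directed soil sprays after planting in loam–sand, chemicals formulated in non-phytotoxic solvent containing surfactant.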

[2] = test system: kochia; test: Test A pre-/postemergence herbicide test; type: in vivo, Kochia scoparia; conditions: for Plant response rating, Kochia: 0 to 100 scale
From the text: (§2) Seeds of plant species selected from bamyardgrass (Echinochloa crus-galli), kochia (Kochia scoparia), ragweed (common ragweed, Ambrosia elatior), ryegrass, Italian (Italian ryegrass, Lolium multiflorum), crabgrass, large (large crabgrass Digitaria sanguinalis), giant foxtail (Setaria faberii), morningglory (Ipomoea spp.), pigweed (Amaranthus retroflexus), velvetleaf (Abutilon theophrasti), wheat (Triticum aestivum), and corn (Zea mays) were planted into a blend of loam soil and sand and treated preemergence with a directed soil spray using test chemicals formulated in a non-phytotoxic solvent mixture which included a surfactant. At the same time, plants selected from these crop and weed species and also blackgrass (Alopecurus myosuroides), and galium (catchweed bedstraw, Galium aparine) were planted in pots containing the same blend of loam soil and sand and treated with postemergence applications of test chemicals formulated in the same manner. Plants ranged in height from 2 to 10 cm and were in the one- to two-leaf stage for the postemergence treatment. Treated plants and untreated controls were maintained in a greenhouse for approximately 10 days, after which time all treated plants were compared to untreated controls and visually evaluated for injury. Plant response ratings, summarized in Table A, are based on a 0 to 100 scale where 0 is no effect and 100 is complete control. A dash (-) response means no test result.

[3] = test system: ragweed; test: Test A pre-/postemergence herbicide test; type: in vivo, Ambrosia elatior; conditions: for Plant response rating, Ragweed: 0 to 100 scale
Outline: as §1

[4] = test system: ryegrass, Italian; test: Test A pre-/postemergence herbicide test; type: in vivo, Lolium multiflorum; conditions: for Plant response rating, Ryegrass, Italian: 0 to 100 scale
From the text: as §2

[5] = test system: giant foxtail; test: Test A pre-/postemergence herbicide test; type: in vivo, Setaria faberii; conditions: for Plant response rating, Foxtail, Giant: 0 to 100 scale
Outline: as §1

[6] = test system: pigweed; test: Test A pre-/postemergence herbicide test; type: in vivo, Amaranthus retroflexus; conditions: for Plant response rating, Pigweed: 0 to 100 scale
Outline: as §1

[7] = test system: wheat; test: Test A pre-/postemergence herbicide test; type: in vivo, Triticum aestivum; conditions: Postemergence; for Plant response rating, Wheat: 125 g ai/ha, 0 to 100 scale, 0 is no effect, 100 is complete control; for Wheat plant response rating (0 to 100 scale, 0 is no effect, 100 is complete control): 500 g ai/ha
Outline: as §1

[8] = test system: corn; test: Test A pre-/postemergence herbicide test; type: in vivo, Zea mays; conditions: Postemergence; for Plant response rating, Corn: 125 g ai/ha, 0 to 100 scale, 0 is no effect, 100 is complete control; for Corn plant response rating (0 to 100 scale, 0 is no effect, 100 is complete control): 500 g ai/ha
Outline: as §1

[9] = test system: blackgrass; test: Test A postemergence herbicide test; type: in vivo, Alopecurus myosuroides; conditions: for Plant response rating, Blackgrass: 125 g ai/ha, 0 to 100 scale, 0 is no effect, 100 is complete control; for Blackgrass plant response rating (0 to 100 scale, 0 is no effect, 100 is complete control): 500 g ai/ha
From the text: At the same time, plants selected from these crop and weed species and also blackgrass (Alopecurus myosuroides), and galium (catchweed bedstraw, Galium aparine) were planted in pots containing the same blend of loam soil and sand and treated with postemergence applications of test chemicals formulated in the same manner. Plants ranged in height from 2 to 10 cm and were in the one- to two-leaf stage for the postemergence treatment. Treated plants and untreated controls were maintained in a greenhouse for approximately 10 days, after which time all treated plants were compared to untreated controls and visually evaluated for injury. Plant response ratings, summarized in Table A, are based on a 0 to 100 scale where 0 is no effect and 100 is complete control. A dash (-) response means no test result.

[10] = test system: galium; test: Test A postemergence herbicide test; type: in vivo, Galium aparine; conditions: for Plant response rating, Galium: 125 g ai/ha, 0 to 100 scale, 0 is no effect, 100 is complete control; for Galium plant response rating (0 to 100 scale, 0 is no effect, 100 is complete control): 500 g ai/ha
Outline: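 Young potted plants in a loam–sand mix, one- to two-leaf stage and 2–10 cm tall, receive the test chemical postemergence and stay in a greenhouse for approximately 10 days. Injury is then judged by eye against untreated plants, scored 0 (none) to 100 (complete control).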

[11] = 125 g ai/ha, visual rating, 0 no effect, 100 complete control, approximately 10 days, preemergence
[12] = Postemergence, 125 g ai/ha, 0 is no effect, 100 is complete control
[13] = preemergence, 500 g ai/ha, 0 is no effect and 100 is complete control

Row | SMILES | Plant response rating, Barnyardgrass [1, 11] | Plant response rating, Barnyardgrass [1, 12] | Barnyardgrass plant response rating (0 to 100 scale, 0 is no effect, 100 is complete control) ([1]; Postemergence, 500 g ai/ha) | Plant response rating, Barnyardgrass [1, 13] | Plant response rating, Kochia [2, 11] | Plant response rating, Kochia [2, 12] | Kochia plant response rating (0 to 100 scale, 0 is no effect, 100 is complete control) ([2]; Postemergence, 500 g ai/ha) | Plant response rating, Kochia [2, 13] | Plant response rating, Ragweed [3, 11] | Plant response rating, Ragweed [3, 12] | Ragweed plant response rating (0 to 100 scale, 0 is no effect, 100 is complete control) ([3]; Postemergence, 500 g ai/ha) | Plant response rating, Ragweed [3, 13] | Plant response rating, Ryegrass, Italian [4, 11] | Plant response rating, Ryegrass, Italian [4, 12] | Ryegrass, Italian plant response rating (0 to 100 scale, 0 is no effect, 100 is complete control) ([4]; Postemergence, 500 g ai/ha) | Plant response rating, Ryegrass, Italian [4, 13] | Plant response rating, Foxtail, Giant [5, 11] | Plant response rating, Foxtail, Giant [5, 12] | Foxtail, Giant plant response rating (0 to 100 scale, 0 is no effect, 100 is complete control) ([5]; Postemergence, 500 g ai/ha) | Plant response rating, Foxtail, Giant [5, 13] | also measured
1 | O=C1NCC(c2ccc(OC(F)(F)C(F)F)cc2)C1C(=O)Nc1ccc(F)c(F)c1F (racemic) [Compound 174] | 0 | 0 | 20 | 20 | 0 | 0 | 0 | 20 | 0 | 0 | 0 | 0 | 0 | 0 | 0 | 0 | 30 | 20 | 30 | 50 | Plant response rating, Pigweed [6, 11]: 0; Plant response rating, Pigweed [6, 12]: 0; Pigweed plant response rating (0 to 100 scale, 0 is no effect, 100 is complete control) ([6]; Postemergence, 500 g ai/ha): 0; Plant response rating, Pigweed [6, 13]: 0; Plant response rating, Wheat [7]: 0; Wheat plant response rating (0 to 100 scale, 0 is no effect, 100 is complete control) [7]: 0; Plant response rating, Corn [8]: 0; Corn plant response rating (0 to 100 scale, 0 is no effect, 100 is complete control) [8]: 0; Plant response rating, Blackgrass [9]: 0; Blackgrass plant response rating (0 to 100 scale, 0 is no effect, 100 is complete control) [9]: 0; Plant response rating, Galium [10]: 0; Galium plant response rating (0 to 100 scale, 0 is no effect, 100 is complete control) [10]: 0
2 | Cc1ccc(F)c(NC(=O)C2C(=O)NCC2c2cccc(C(F)(F)F)c2)c1 (racemic) [Compound 183] | 0 | 0 | 0 | 0 | 0 | 0 | 0 | 0 | 0 | 0 | 0 | 0 | 0 | 0 | 0 | 0 | 0 | 0 | 0 | 0 | Plant response rating, Pigweed [6, 11]: 0; Plant response rating, Pigweed [6, 12]: 0; Pigweed plant response rating (0 to 100 scale, 0 is no effect, 100 is complete control) ([6]; Postemergence, 500 g ai/ha): 0; Plant response rating, Pigweed [6, 13]: 0; Plant response rating, Wheat [7]: 0; Wheat plant response rating (0 to 100 scale, 0 is no effect, 100 is complete control) [7]: 0; Plant response rating, Corn [8]: 0; Corn plant response rating (0 to 100 scale, 0 is no effect, 100 is complete control) [8]: 0; Plant response rating, Blackgrass [9]: 0; Blackgrass plant response rating (0 to 100 scale, 0 is no effect, 100 is complete control) [9]: 0; Plant response rating, Galium [10]: 0; Galium plant response rating (0 to 100 scale, 0 is no effect, 100 is complete control) [10]: 0
